# According to patent US10526371B2, “Hydrogel-forming peptides” (Universiteit Gent, priority 2015, dated 2020):
# Where “and” joins values, the source holds several entries; their conditions need not be identical. Equal entries are not always repeated. Square brackets hold non-standard residues; d marks the D form. Peptide text beside a SMILES is read from it. β3hF = N[C@H](CC(=O)O)Cc1ccccc1
# Columns and labels:
# [1] = tested on: elastase; assay: Enzymatic degradation study of peptides in non-gelating conditions; assay type: in vitro ADME; conditions: peptide 350 μM, elastase 60 μM, 37° C.
# Protocol: The following biodegradation experiments were performed in order to assess biostability of peptides of the invention toward elastase, a prominent enzyme present in the subcutaneous compartment.
# The following buffer was used to assay the proteolytic stability of the peptides towards elastase: 10 mM PBS at pH 7.2. First, a stock solution of elastase (60 μM in 10 mM PBS) was prepared. Peptides SEQ ID NO 1, 2 and 3 and reference α-peptide SEQ ID NO 23 were subjected to the degradation study and prepared as a stock solution of 350 μM in mQ water (with a resistivity of […]). Enzymatic degradation was carried out by incubation of peptide (900 μL, 350 μM) with the enzyme (150 μL, 60 μM) at 37° C. for 7 days. To preclude any pH-dependent effects on the enzyme's activity, the pH value was kept at pH 6.9±0.5 in all degradation experiments.
# The enzyme concentration was selected such that the reference α-peptide SEQ ID NO 23 was completely degraded in less than 1 hour. In case of the α-peptide SEQ ID NO 23, aliquots (70 μL) were periodically taken at 0 min, 5 min, 10 min, 15 min, 20 min and 30 min, while for the mixed α/β-peptides aliquots (70 μL) were taken at 0 min, 20 min, 30 min, 1 h, 2 h, 5 h, 1 day, 2 days, 3 days, 4 days, 5 days and 6 days. 5 μL of 25% AcOH in water (v/v) were added and the degradation was monitored by HPLC analysis. After just 30 min of exposure to elastase, the reference α-peptide SEQ ID NO 23 was completely degraded. The enzymatic degradation of mixed α/β-peptides SEQ ID NO 1, SEQ ID NO 2 and SEQ ID NO 3 was remarkably slower and lasted several days. Mixed α/β-peptides SEQ ID NO 1 and SEQ ID NO 2 were completely consumed after 6 days whilst mixed α/β-peptide SEQ ID NO 1, SEQ ID NO 3 was degraded after 3 days.
# [2] = tested on: elastase; assay: Proteolytic stability of hydrogels (elastase solution on top of hydrogel); assay type: in vitro ADME; conditions: for time at which hydrogel changed into an opaque structure / gel degradation time (hydrogel unstable/fluid-like): elastase 60 μM in 10 mM PBS on top; for gel degradation time (hydrogel unstable/fluid-like): room temperature; for macroscopic aggregation / physical degradation: over 42 days
# Protocol: (B) The proteolytic stability of the hydrogels was analyzed by placing an elastase solution (60 μM in 10 mM PBS) on top of the hydrogel. In all the stability experiments a total volume of 4 mL (gel+PBS solution with and without enzyme) was obtained. The addition of the enzyme solution on top of the hydrogel was set as the starting point of the gel-degradation experiments; B. At specific time-intervals (0 h, 24 h, 2 days, 3 days, 4 days, 5 days, 6 days, 7 days, 2 weeks, 3 weeks, etc.) the liquid portion on top of the hydrogel was removed using a pipette and the hydrogel's volume was estimated using following formula: VTotal−VLiquid portion=VHydrogel (1)
# wherein VTotal is the total volume and remains at 4 mL and VLiquid portion is the volume measured of the liquid portion after each sampling interval. At each sampling interval the pH was also measured; C. A picture of the inverted glass tube, only containing the self-sustaining non-fluid-like hydrogel, was taken in order to assess the physical deformation of the hydrogel and volume-loss; D. The PBS, mQ or enzyme solution is gently replaced on top of the hydrogel using a pipette, allowing repetition of steps A-D. Between sampling-intervals the glass tubes were kept undisturbed at room temperature. The gel degradation time was defined as the period required for complete disintegration of the hydrogels into liquid under observation of the naked eye.
# (C) In a next step, the stability and degradation profiles of the mixed α/β-hydrogels were investigated using this methodology. During the first hours after addition of the elastase to peptide SEQ ID NO 1 hydrogel, no apparent physical deformation was observed. The collected liquid portion (on top of the hydrogel) measured 3 mL (during the first 10 hours). […] In comparison to the α-peptide 1 hydrogel the degradation time of peptide SEQ ID NO 1 hydrogel was extended from 3.5 days to 5.5 days. However, the physical alteration of this hydrogel into an opaque structure was already observed after one day.
# [3] = Peptide self-assembly / gelation conditions; assay type: physicochemical; conditions: TFA salt
# Protocol: Peptide self-assembly was analyzed in i) a PBS solution (10 mM), ii) a PBS/mQ mixture (1:1 v:v, mQ water with a resistivity of […]) or iii) a NaCl aqueous solution (150 mM). The TFA salt of reference peptide SEQ NO. 23 (1 mg) was dissolved in 50 μl mQ water, followed by the addition of 50 μl PBS solution. This mixture was left to rest overnight, resulting in a 1% w/v hydrogel. The TFA salt of mixed α/β-peptides SEQ ID NO 1 and SEQ ID NO 2 (2 mg) was dissolved in mQ (100 μL) and PBS/mQ mixture (100 μL), respectively. […] The TFA salt of mixed α/β-peptide SEQ ID NO 3 (3 mg) was dissolved in PBS (100 μL) to probe gelation. All self-assembled gels were analyzed by circular dichroism (CD) and Fourier transform infrared (FT-IR) spectroscopy, as well as cryogenic transmission electron microscopy (Cryo-TEM).
# (SEQ ID NO:22 (=10-mer)), 100 μl mQ water was added to 2 mg of TFA-salt of pure peptide, then vortexed and sonicated. As a result, a transparent self-supporting gel was formed immediately. A gelation condition of 2 w/v % in mQ water was found.
# for H-Fβ^2hFEFQFK-NH2 (SEQ ID NO:19), 100 μl of PBS was added to 2 mg of TFA-salt of pure peptide, then vortexed and sonicated. After overnight resting, a self-supporting gel was formed. A gelation condition of 2 w/v % in PBS was determined.
# [4] = Erosion / general stability of hydrogel without enzyme (PBS on top); assay type: physicochemical
# Protocol: (A). The peptide hydrogel (1 mL) was prepared in a 10 mL glass tube using the appropriate gelation conditions (see peptide self-assembly in example 2). After leaving the hydrogel to rest overnight the degradation evaluation was started. First, general stability (without the incubation of an enzyme) was evaluated for α-peptide SEQ ID NO 23: 3 mL of mQ water was gently placed on top of the hydrogel and erosion experiments were performed by placing 3 mL PBS solution (10 mM) on top of the hydrogel to assess the hydrogels macroscopic decay in time. […] After 24 hours there was a small loss in volume (0.1 mL) of the formed hydrogel and the aggregation remained visible at the hydrogel surface. The PBS fraction was recollected and measured as 3.1 mL, in agreement with the 0.1 mL volume loss of the hydrogel. After 4 days the hydrogel was completely disintegrated into opaque aggregated pieces sticking to the bottom of the glass tube. The collected solution was measured to be 3.8 mL.
# [5] = 3 mL PBS on top, after 24 hours
Compound,time to complete degradation by elastase ([1]; HPLC),"collected liquid portion on top of the hydrogel ([2]; hydrogel with elastase, during the first 10 hours) [mL]",time at which hydrogel changed into an opaque structure [2],gel degradation time (hydrogel unstable/fluid-like) [2] [days],time to complete degradation by elastase ([1]; enzyme concentration selected for this),"hydrogel concentration obtained ([3]; 50 μl mQ water + 50 μl PBS, rest overnight) [% w/v]",time of gelation (self-supporting gel formed) ([3]; at its own gelation condition),"hydrogel volume ([4]; 1 mL hydrogel, 3 mL PBS 10 mM on top, after 2 hours) [mL]","PBS fraction recollected [4, 5] [mL]","loss in volume of hydrogel [4, 5] [mL]","collected solution ([4]; 3 mL PBS on top, after 4 days) [mL]","time to complete disintegration of hydrogel ([4]; 3 mL PBS on top, no enzyme) [days]",physical stability: time without observable volume loss ([2]; hydrogel with elastase),macroscopic aggregation / physical degradation ([2]; hydrogel with elastase),"hydrogel volume relative to original volume ([2]; hydrogel with elastase, after 35 days)"
"NCCCC[C@H](NC(=O)[C@H](Cc1ccccc1)NC(=O)C[C@H](Cc1ccccc1)NC(=O)[C@H](CCC(N)=O)NC(=O)[C@H](Cc1ccccc1)NC(=O)C[C@H](Cc1ccccc1)NC(=O)[C@H](CCC(=O)O)NC(=O)[C@@H](N)Cc1ccccc1)C(=O)O [SEQ ID NO 1, H-Phe-Glu-β^3hPhe-Phe-Gln-β^3hPhe-Phe-Lys-OH] (H-FE[β3hF]FQ[β3hF]FK-OH)",6 days and 3 days,3,one,5.5,,,,,,,,,,,
"H-FEFQFK-OH [SEQ ID NO 23, H-FEFQFK-OH, reference compound]",0.0208 days,,2 days,3.5,less than 1 hour,1,overnight,1,3.1,0.1,3.8,4,,,
"NCCCC[C@H](NC(=O)[C@H](Cc1ccc(O)cc1)NC(=O)C[C@H](Cc1ccccc1)NC(=O)[C@H](CCC(N)=O)NC(=O)[C@H](Cc1ccc(O)cc1)NC(=O)C[C@H](Cc1ccccc1)NC(=O)[C@H](CCC(=O)O)NC(=O)[C@@H](N)Cc1ccccc1)C(N)=O [SEQ ID NO 3, H-Phe-Glu-β^3hPhe-Tyr-Gln-β^3hPhe-Tyr-Lys-NH2] (H-FE[β3hF]YQ[β3hF]YK-NH2)",3 days,,,,,,,,,,,,over 42 days,no significant physical degradation nor aggregation,
"NCCCC[C@H](NC(=O)[C@H](Cc1ccccc1)NC(=O)C[C@H](Cc1ccccc1)NC(=O)[C@H](CCC(N)=O)NC(=O)[C@H](Cc1ccccc1)NC(=O)C[C@H](Cc1ccccc1)NC(=O)[C@H](CCC(=O)O)NC(=O)[C@@H](N)Cc1ccccc1)C(N)=O [SEQ ID NO 2, H-Phe-Glu-β^3hPhe-Phe-Gln-β^3hPhe-Phe-Lys-NH2] (H-FE[β3hF]FQ[β3hF]FK-NH2)",6 days,,,,,,,,,,,,,no macroscopic aggregation was observed,approximately half
